Assay results taken from PubChem BioAssay (NCI).
Values joined by “and” are separate entries in the source; they are usually repeats but may differ in a detail not shown here. Identical values can stand only once.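 In this assay, cells in 96-well plates receive the compound at five concentrations for 48 hours. Endpoints are linearly interpolated between the surrounding concentrations. Here, GI50 denotes the concentration required for 50% inhibition of growth. TGI denotes the concentration required for complete inhibition of growth.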

Key:
Test in all cases: DTP human tumour cell line panel, 48 h
BT-549 breast = test system: BT-549 breast
HCT-116 colon = test system: HCT-116 colon
HL-60(TB) leukemia = test system: HL-60(TB) leukemia
HOP-92 NSCLC = test system: HOP-92 NSCLC
M14 melanoma = test system: M14 melanoma
OVCAR-5 ovarian = test system: OVCAR-5 ovarian
OVCAR-8 ovarian = test system: OVCAR-8 ovarian
RPMI-8226 leukemia = test system: RPMI-8226 leukemia
SNB-19 CNS = test system: SNB-19 CNS
UO-31 renal = test system: UO-31 renal

| Structure (SMILES) | TGI (BT-549 breast) | TGI (HCT-116 colon) | TGI (HL-60(TB) leukemia) | TGI (HOP-92 NSCLC) | TGI (M14 melanoma) | TGI (OVCAR-5 ovarian) | TGI (OVCAR-8 ovarian) | TGI (RPMI-8226 leukemia) | TGI (SNB-19 CNS) | TGI (UO-31 renal) | GI50 (BT-549 breast) | GI50 (HCT-116 colon) | GI50 (HL-60(TB) leukemia) | GI50 (HOP-92 NSCLC) | GI50 (M14 melanoma) | GI50 (OVCAR-5 ovarian) | GI50 (OVCAR-8 ovarian) | GI50 (RPMI-8226 leukemia) | GI50 (SNB-19 CNS) | GI50 (UO-31 renal) |
| --- | --- | --- | --- | --- | --- | --- | --- | --- | --- | --- | --- | --- | --- | --- | --- | --- | --- | --- | --- | --- |
| Nc1nc(N)nc(CC(=O)O)n1 | > 100 µM | > 100 µM | > 100 µM | > 100 µM | > 100 µM | > 100 µM | > 100 µM | > 100 µM | > 100 µM | > 100 µM | – | – | – | – | – | – | – | – | – | – |
| COc1cc2c(c(OC)c1OC)-c1ccc(O)c(=O)cc1[C@@H](NC(C)=O)CC2 | > 100 µM and 39.4 µM | > 100 µM | 15.6 µM and 32.7 µM | > 100 µM and 58.3 µM | 60.7 µM and 78.2 µM | > 100 µM | > 100 µM and 35.7 µM | > 100 µM and 36.9 µM | > 100 µM | 63.8 µM and 89 µM | 24 µM | 4.23 µM | 3.31 µM | 9.92 µM | 9.54 µM | 22.7 µM | 3.77 µM | 8.15 µM | 7.14 µM | 4.42 µM |
| CN(C)CCCc1c2ccccc2nc2ccc(Cl)cc12 | 38.2 µM | 25.4 µM | 40.3 µM | 23.1 µM | 27.8 µM | 33.3 µM | 32.6 µM | 96.2 µM | 33.5 µM | – | – | – | – | – | – | – | – | – | – | – |
| CCC[CH2][Sn]1([CH2]CCC)[O]C(=O)c2ccc(N)cc2[O]1 | 0.985 µM | 2.19 µM | 1.67 µM | 0.988 µM | 2.18 µM | 3.3 µM | 2.49 µM | 1.79 µM | 2.17 µM | 1.82 µM | 0.15 µM | 0.965 µM | 0.105 µM | 0.149 µM | 0.576 µM | 1.77 µM | 0.909 µM | 0.143 µM | 0.734 µM | 0.465 µM |
| O=C(N/N=C/c1ccc(Cl)cc1)c1[nH]c2ccc(Cl)cc2c1-c1ccccc1 | 3.58 µM | 1.56 µM | 0.393 µM | 41.5 µM | 18.5 µM | > 100 µM | 32.6 µM | 0.0556 µM | > 56.1 µM | > 65 µM | 0.146 µM | 0.114 µM | 0.107 µM | 0.424 µM | 0.0937 µM | 0.573 µM | 0.132 µM | 0.0193 µM | 0.504 µM | 0.268 µM |
| CC[C@H](Nc1nc(N)nc(C2CC2)c1C#N)c1nc2cccc(NCc3ccc(C(=O)NO)cc3)c2c(=O)n1-c1ccccc1 | 7.84 µM | 2.71 µM | 5.65 µM | 4.59 µM | 4.66 µM | 5.08 µM | – | 9.03 µM | 6.94 µM | 2.59 µM | 2.5 µM | 1.25 µM | 2.35 µM | 1.73 µM | 2.02 µM | 1.92 µM | – | 2.52 µM | 2.18 µM | 1.26 µM |
| Oc1c(Cl)cc(Cl)cc1Sc1cc(Cl)cc(Cl)c1O | 8.09 µM | 9 µM and 6.51 µM | 6.5 µM and 7.5 µM | 4.47 µM and 4.65 µM | 15.3 µM and 14.5 µM | 17.9 µM and 14.2 µM | 12.6 µM and 11.4 µM | 8.93 µM and 16.8 µM | 32.2 µM and 14.2 µM | 11.6 µM and 9.32 µM | 2.81 µM | 2.87 µM and 2.44 µM | 2.88 µM and 2.72 µM | 1.65 µM | 3.88 µM and 4.02 µM | 4.37 µM and 4.04 µM | 3.28 µM and 2.85 µM | 3.13 µM and 2.49 µM | 4.84 µM and 3.23 µM | 2.46 µM and 2.02 µM |
